Laboratory results from PubChem BioAssay AID2060502 (Molecular Pharmacology Branch, DTP, NCI, 2025).

Tested on: 885724-159-R-J1-PDC complex spheroid viability
Assay: Anticancer human tumor 885724-159-R-J1-PDC patient-derived pancreatic adenocarcinoma cell line growth inhibition [GQUAD]
Conditions: for IC50: curve of first compound; for viability, T/C: stronger effect = lower value
Excerpt: DNA G-quadruplex Stabilizer Agents in Combinations in Complex Spheroids
A high-throughput screen of multi-cell type tumor spheroids was designed to identify active combinations of DNA G-quadruplex stabilizer agents and targeted small molecules. Complex spheroids include a stromal component modeled by human endothelial cells (HUVEC) and fibroblasts modeled by human mesenchymal stem cells (MSCs). The concentration ranges selected for each drug and investigational agent were based upon clinically achievable concentrations if the clinical Cmax of the agent was known.
Compounds. The drugs and investigational agents: pidnarulex (CX-5461; NSC782164), APTO-253 (NSC789042), BRACO-19 (NSC847499), peposertib (NSC802822), ceralasertib (NSC780249), elimusertib (NSC800525), camonsertib (NSC841442), AZD-1390 (NSC803789), olaparib (NSC753686), talazoparib (NSC767125), ART-558 (NSC835418), sotorasib (NSC818433), MRTX-1133 (NSC836407), SN-38 (NSC673596), topotecan (NSC609699), etoposide (NSC141540), doxorubicin (NSC123127), gemcitabine (NSC613327), 5-fluorouracil (NSC19893), paclitaxel (NSC125973), vemurafenib (NSC761431), panobinostat (NSC761190), R-306465 (JNJ-16241199; NSC773264), adavosertib (NSC754352), TP-3654 (NSC805149), carboplatin (NSC241240), KSQ-4279 (NSC840948), and staurosporine (NSC755774) were obtained from the National Cancer Institute (NCI) Developmental Therapeutics Program Chemical Repository (34). The FDA-approved anticancer drug set is available from the NCI Developmental Therapeutics Program. […] The stock solutions were prepared in dimethyl sulfoxide (DMSO, Sigma-Aldrich, St. Louis, MO, cat. D2650) at 800-fold the tested concentration and stored at -70 degrees C prior to their use. All drugs and investigational agents were tested over a range starting from a high concentration at or near the clinical Cmax and decreasing in half-log increments. If the clinical Cmax for an agent had not been determined, the highest concentration tested was 10 microM.
2.3 Cell Culture. All cells were maintained in an incubator at 37 degrees C and 5% CO2 with 95% humidity. The PDC lines were cultured according to standard operating procedures established by the NCI PDMR. All PDCs were thawed and cultured in Matrigel-coated flasks prepared with a working solution of 1X Ham's F-12 nutrient mix, without supplementation (Invitrogen, cat. 11765054), 100 U/mL penicillin-streptomycin (Invitrogen, cat. 15140122), and 2.5% Matrigel (Corning Inc., cat. 354248) for the first three passages. The 857933-349-R-J2-PDC line was cultured in 6C/Colon 1B media, which includes advanced DMEM/F-12 (Thermo Fisher Scientific, cat. 12634028), 10 mM HEPES (Thermo Fisher Scientific, cat. 15630080), 1X GlutaMAX supplement (Thermo Fisher Scientific, cat. 35050061), 0.1 mg/mL primocin (InvivoGen, cat. ant-pm-2), 10% defined fetal bovine serum, heat inactivated (HyClone Laboratories Inc., cat. SH30070.03HI), 50% L-WRN conditioned media (ATCC, cat. CRL-3276), 1.25 mM N-Acetyl-L-cysteine (Sigma-Aldrich, cat. A9165), 10 mM nicotinamide (Sigma-Aldrich, cat. N0636), 1X B-27 supplement (Thermo Fisher Scientific, cat. 17504044), 1X N-2 supplement (Thermo Fisher Scientific, cat. 17502048), 10 microM Y-27632 dihydrochloride (Tocris Bioscience, cat. 1254), and 50 ng/mL human EGF recombinant protein (Thermo Fisher Scientific, cat. PHG0311). The 485176-168-R4-J1-PDC line was cultured in Panc media, which includes all 6C/Colon 1B media components plus 100 ng/mL human FGF-10 (Thermo Fisher Scientific, cat. 100-26), 500 nM SB-431542 (Selleckchem, cat. S1067), and gastrin (Tocris, cat. 3006).
[…]

[1] = second compound 0.0316 µM, first compound 0.0316 µM
[2] = second compound 0.0316 µM, first compound 0.1 µM
[3] = second compound 0.0316 µM, first compound 0.316 µM
[4] = second compound 0.0316 µM, first compound 1 µM
[5] = second compound 0.0316 µM, first compound 3.16 µM
[6] = second compound 0.0316 µM, first compound 10 µM
[7] = second compound 0.1 µM, first compound 0.0316 µM
[8] = second compound 0.1 µM, first compound 0.1 µM
[9] = second compound 0.1 µM, first compound 0.316 µM
[10] = second compound 0.1 µM, first compound 1 µM
[11] = second compound 0.1 µM, first compound 3.16 µM
[12] = second compound 0.1 µM, first compound 10 µM
[13] = second compound 0.316 µM, first compound 0.0316 µM
[14] = second compound 0.316 µM, first compound 0.1 µM
[15] = second compound 0.316 µM, first compound 0.316 µM
[16] = second compound 0.316 µM, first compound 1 µM
[17] = second compound 0.316 µM, first compound 3.16 µM
[18] = second compound 0.316 µM, first compound 10 µM
[19] = second compound 1 µM, first compound 0.0316 µM
[20] = second compound 1 µM, first compound 0.1 µM
[21] = second compound 1 µM, first compound 0.316 µM
[22] = second compound 1 µM, first compound 1 µM
[23] = second compound 1 µM, first compound 3.16 µM
[24] = second compound 1 µM, first compound 10 µM
[25] = second compound 3.16 µM, first compound 0.0316 µM
[26] = second compound 3.16 µM, first compound 0.1 µM
[27] = second compound 3.16 µM, first compound 0.316 µM
[28] = second compound 3.16 µM, first compound 1 µM
[29] = second compound 3.16 µM, first compound 3.16 µM
[30] = second compound 3.16 µM, first compound 10 µM
[31] = second compound 10 µM, first compound 0.0316 µM
[32] = second compound 10 µM, first compound 0.1 µM
[33] = second compound 10 µM, first compound 0.316 µM
[34] = second compound 10 µM, first compound 1 µM
[35] = second compound 10 µM, first compound 3.16 µM
[36] = second compound 10 µM, first compound 10 µM
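Also: spheroids exposed to agents for seven days before readout.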
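For viability, T/C in this document: percent of vehicle control viability where 100% = DMSO wells.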

## CC1COCCN1c1cc(C2(O)CC3CCC(C2)O3)c2cnn(-c3ccn[nH]3)c2n1 (stereo unspecified) + CN(C)c1ccc(Nc2c3ccc(NC(=O)CCN4CCCC4)cc3nc3cc(NC(=O)CCN4CCCC4)ccc23)cc1
Second compound 0.0316 µM
  IC50: 1.48 µM
Second compound 0.1 µM
  IC50: 1.4 µM
Second compound 0.316 µM
  IC50: 0.495 µM
Second compound 1 µM
  IC50: 0.88 µM
Second compound 3.16 µM
  IC50: 0.286 µM
Second compound 10 µM
  IC50: 0.449 µM
[1]
  viability, T/C: 89%
[2]
  viability, T/C: 74%
[3]
  viability, T/C: 69.3%
[4]
  viability, T/C: 53.1%
[5]
  viability, T/C: 41.6%
[6]
  viability, T/C: 33.9%
[7]
  viability, T/C: 95.4%
[8]
  viability, T/C: 83.8%
[9]
  viability, T/C: 61.5%
[10]
  viability, T/C: 55.8%
[11]
  viability, T/C: 42.8%
[12]
  viability, T/C: 36.8%
[13]
  viability, T/C: 80.9%
[14]
  viability, T/C: 83.5%
[15]
  viability, T/C: 55.4%
[16]
  viability, T/C: 46.4%
[17]
  viability, T/C: 44.9%
[18]
  viability, T/C: 33%
[19]
  viability, T/C: 74.9%
[20]
  viability, T/C: 62.5%
[21]
  viability, T/C: 65.1%
[22]
  viability, T/C: 45.6%
[23]
  viability, T/C: 39.9%
[24]
  viability, T/C: 32.6%
[25]
  viability, T/C: 80.9%
[26]
  viability, T/C: 65.4%
[27]
  viability, T/C: 47.6%
[28]
  viability, T/C: 38.4%
[29]
  viability, T/C: 33.4%
[30]
  viability, T/C: 29.5%
[31]
  viability, T/C: 70.2%
[32]
  viability, T/C: 66.7%
[33]
  viability, T/C: 49.6%
[34]
  viability, T/C: 42.4%
[35]
  viability, T/C: 35.6%
[36]
  viability, T/C: 23.3%

## CC1COCCN1c1cc(C2(S(C)(=N)=O)CC2)nc(-c2ccnc3[nH]ccc23)n1 (stereo unspecified) + CN(C)c1ccc(Nc2c3ccc(NC(=O)CCN4CCCC4)cc3nc3cc(NC(=O)CCN4CCCC4)ccc23)cc1
Second compound 0.0316 µM
  IC50: > 10 µM
Second compound 0.1 µM
  IC50: > 10 µM
Second compound 0.316 µM
  IC50: > 10 µM
Second compound 1 µM
  IC50: > 10 µM
Second compound 3.16 µM
  IC50: > 10 µM
Second compound 10 µM
  IC50: > 10 µM
[1]
  viability, T/C: 102%
[2]
  viability, T/C: 106%
[3]
  viability, T/C: 98.1%
[4]
  viability, T/C: 98.6%
[5]
  viability, T/C: 69.1%
[6]
  viability, T/C: 79.6%
[7]
  viability, T/C: 87.7%
[8]
  viability, T/C: 93.7%
[9]
  viability, T/C: 82%
[10]
  viability, T/C: 87%
[11]
  viability, T/C: 79.3%
[12]
  viability, T/C: 75.3%
[13]
  viability, T/C: 84.5%
[14]
  viability, T/C: 89.6%
[15]
  viability, T/C: 92.3%
[16]
  viability, T/C: 75%
[17]
  viability, T/C: 80%
[18]
  viability, T/C: 63.9%
[19]
  viability, T/C: 89.4%
[20]
  viability, T/C: 74.3%
[21]
  viability, T/C: 76.3%
[22]
  viability, T/C: 73.2%
[23]
  viability, T/C: 76.8%
[24]
  viability, T/C: 53%
[25]
  viability, T/C: 76.3%
[26]
  viability, T/C: 65.1%
[27]
  viability, T/C: 65.3%
[28]
  viability, T/C: 64%
[29]
  viability, T/C: 73%
[30]
  viability, T/C: 51.6%
[31]
  viability, T/C: 71.9%
[32]
  viability, T/C: 81.8%
[33]
  viability, T/C: 85.4%
[34]
  viability, T/C: 67%
[35]
  viability, T/C: 71.9%
[36]
  viability, T/C: 63%

## COc1ccc([C@@H](O)c2cc(-c3ncnc4cc(N5CCOCC5)ccc34)c(F)cc2Cl)nn1 + CN(C)c1ccc(Nc2c3ccc(NC(=O)CCN4CCCC4)cc3nc3cc(NC(=O)CCN4CCCC4)ccc23)cc1
Second compound 0.0316 µM
  IC50: 6.35 µM
Second compound 0.1 µM
  IC50: 4.79 µM
Second compound 0.316 µM
  IC50: 5.21 µM
Second compound 1 µM
  IC50: 3.02 µM
Second compound 3.16 µM
  IC50: 3.14 µM
Second compound 10 µM
  IC50: 2.73 µM
[1]
  viability, T/C: 88.5%
[2]
  viability, T/C: 89%
[3]
  viability, T/C: 79.8%
[4]
  viability, T/C: 85.3%
[5]
  viability, T/C: 58.4%
[6]
  viability, T/C: 44.6%
[7]
  viability, T/C: 95.7%
[8]
  viability, T/C: 90.5%
[9]
  viability, T/C: 95.7%
[10]
  viability, T/C: 73.5%
[11]
  viability, T/C: 59%
[12]
  viability, T/C: 36.9%
[13]
  viability, T/C: 89.3%
[14]
  viability, T/C: 82.3%
[15]
  viability, T/C: 79.2%
[16]
  viability, T/C: 70.7%
[17]
  viability, T/C: 62.8%
[18]
  viability, T/C: 36.3%
[19]
  viability, T/C: 78.9%
[20]
  viability, T/C: 84.1%
[21]
  viability, T/C: 82.7%
[22]
  viability, T/C: 70.2%
[23]
  viability, T/C: 49.6%
[24]
  viability, T/C: 30.2%
[25]
  viability, T/C: 71.6%
[26]
  viability, T/C: 70.9%
[27]
  viability, T/C: 73.7%
[28]
  viability, T/C: 60.4%
[29]
  viability, T/C: 50.9%
[30]
  viability, T/C: 29.6%
[31]
  viability, T/C: 72.9%
[32]
  viability, T/C: 81.5%
[33]
  viability, T/C: 69.5%
[34]
  viability, T/C: 62.2%
[35]
  viability, T/C: 49%
[36]
  viability, T/C: 25.2%
